Laboratory results published in the NIST ThermoML archive (doi:10.1021/acs.jced.8b00250).

Test: mn = molality of the nth substance listed, in mol/kg
Conditions: 298.15 K, 101.3 kPa, Liquid, Alternating current cell with electrodes

CCCCC(CC)COC(=O)CC(C(=O)OCC(CC)CCCC)S(=O)(=O)[O-].[Na+] (stereo unspecified) [sodium bis(2-ethylhexyl) sulfosuccinate] + O
Conditions | electrical conductivity [S/m]
m1 = 0.1687 | 0.00147
m1 = 0.5229 | 0.00389
m1 = 0.8008 | 0.00578
m1 = 1.108 | 0.00786
m1 = 1.374 | 0.00965
m1 = 1.663 | 0.0116
m1 = 2.015 | 0.0139
m1 = 2.327 | 0.0161
m1 = 2.661 | 0.0184
m1 = 3.026 | 0.0213
m1 = 3.398 | 0.0239
m1 = 3.654 | 0.0258
m1 = 3.95 | 0.0279
m1 = 4.202 | 0.0296
m1 = 4.434 | 0.0313
m1 = 4.65 | 0.0328
m1 = 4.896 | 0.0345
m1 = 5.165 | 0.0363
m1 = 5.513 | 0.0387
m1 = 5.782 | 0.0405

O [water] + CCCCC(CC)COC(=O)CC(C(=O)OCC(CC)CCCC)S(=O)(=O)[O-].[Na+]
Conditions | electrical conductivity [S/m]
m2 = 0 | 0.000327
